Patent US20260139017A1, “COMPOSITIONS AND METHODS USING REELIN IN ALZHEIMER'S DISEASE” (The General Hospital Corporation, priority 2022, published 2026)

What was measured:
[1] = Surface plasmon resonance (SPR) binding of CTR-RELN peptides to heparin-coated chip
Method: Surface plasmon resonance assay (SPR) was used for performing binding kinetics using a Biacore 3000 Instrument (GE Healthcare) at 25° C. following previously published protocols (7 24) as fee-for-service by Precision Antibody (Maryland, USA). Biotin-labeled heparin (B9806, Sigma Aldrich) was covalently linked to streptavidin-coated chip and unoccupied sites were blocked with biocytin. Antigen was flowed over the chip using a range of single analyte concentrations prepared in DPBS buffer and using a flow rate of 30 μL/min. Binding of antigen to the ligand was monitored in real time to obtain on (ka) and off (kd) rates. The equilibrium constant (KD) was calculated from the observed ka and kd. Accuracy of the SPR analysis was determined via Chi square (χ2) analysis as described in the statistical analysis section. We included in the analyses the WT and H3447R peptides and peptides with the hypothetical H3447D change ([…])(SEQ ID NO:57) and the H3447K change ([…])(SEQ ID NO:58), also produced and purified by Innovagen (Sweden).
Surface plasmon resonance assay (SPR) was used for performing binding kinetics using a Biacore 3000 Instrument (GE Healthcare) at 25° C. following previously published protocols 34 24 fee-for-service by Precision Antibody (Maryland, USA). Heparin was covalently linked to streptavidin coated chip at 13 response units (RU) concentration and unoccupied sites were blocked with biocytin. Antigen was flowed over the chip using a range of single analyte concentrations prepared in DPBS buffer and using a flow rate of 30 μL/min. Binding of antigen to the ligand was monitored in real time to obtain on (ka) and off (kd) rates. The equilibrium constant (KD) was calculated from the observed ka and kd. Accuracy of the SPR analysis was determined via Chi square (2) analysis as described in the statistical analysis section.

NRP1 = molecular target: T1, NRP1 (Homo sapiens, UniProt O14786); experiment: Bio-layer interferometry (BLI) of CTR-RELN-NRP-1 interactions; type: binding; details: Fc-fusion peptides
T1 construct: purchased R&D 3870-N1-025
T1 sequence (O14786 22-644 isoform O14786-2 limits assumed): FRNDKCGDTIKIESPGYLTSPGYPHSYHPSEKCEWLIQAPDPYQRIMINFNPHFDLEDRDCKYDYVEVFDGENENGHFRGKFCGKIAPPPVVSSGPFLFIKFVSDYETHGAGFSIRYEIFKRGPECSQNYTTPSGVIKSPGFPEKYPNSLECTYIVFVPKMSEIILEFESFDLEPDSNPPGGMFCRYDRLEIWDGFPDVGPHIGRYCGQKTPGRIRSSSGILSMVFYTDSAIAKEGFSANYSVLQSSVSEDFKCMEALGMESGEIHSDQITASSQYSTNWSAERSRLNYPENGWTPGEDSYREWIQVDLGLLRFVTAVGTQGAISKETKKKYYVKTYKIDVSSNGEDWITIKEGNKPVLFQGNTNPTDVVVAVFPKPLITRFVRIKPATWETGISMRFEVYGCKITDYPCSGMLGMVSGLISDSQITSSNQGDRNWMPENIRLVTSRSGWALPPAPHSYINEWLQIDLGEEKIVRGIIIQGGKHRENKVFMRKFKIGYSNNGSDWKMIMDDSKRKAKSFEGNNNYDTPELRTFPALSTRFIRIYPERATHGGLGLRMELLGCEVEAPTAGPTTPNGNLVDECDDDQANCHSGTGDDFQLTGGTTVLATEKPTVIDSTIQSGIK
Method: (§1) Bio-layer interferometry (BLI) was additionally used to assess NRP1-protein kinetics at 30° C. and 1000 rpm agitation. 1 mg/mL NRP1 (R&D 3870-N1-025) was biotinylated at a 1:2 molar ratio, desalted, and immobilized on the SA biosensor tip (Pall ForteBio) surface. This was followed by 1) 180 seconds baseline buffer diluent, 2) loading of the ligand (NRP1), 3) 180 seconds baseline buffer diluent, 4) 240 seconds association (analyte), and 5) 300 seconds disassociation in assay buffer. Assay buffer: SD Buffer (pH7.4 PBS, 0.05% tween20, 0.01% BSA).
The experimental data were fit with the 1:1 binding model and analyzed with global fitting using Octet Data Analysis software to calculate KD.
as §1, with “was” for “was additionally”, “agitation using previously published methods.” for “agitation.”

VLDLr = molecular target: T2, VLDLr (Homo sapiens, UniProt P98155); experiment: ELISA cell-free binding of RELN variants to VLDLr
T2 construct: purchased R&D 8444-VL
Method: Enzyme-linked immunosorbent assay (ELISA) was used to quantify changes in binding of RELN variants (media-derived full-length or CTR-RELN) to either VLDLr or ApoEr2 following an optimized version of a previously published protocol (6). Briefly, ELISA strips (DY008, R&D Systems) were coated with one ng/μL (100 μL/well) of VLDLr (8444-VL, R&D) or ApoEr2 (TP320903, OnGene) receptors diluted in 25 mM Tris HCl, 140 mM NaCl, […], two mM CaCl2), pH 7.4 (TBS-C buffer). After 18 h at four ° C. incubation, plates were blocked one h with three % BSA (22070008-6, Bioworld), 0.05% Tween-20 (Sigma Aldrich) TBS-C buffer. We assessed binding via incubation with 100 μL/well of serial dilutions of recombinant RELN protein (Ser1221-Gln2666, 8546-MR-050, R&D) or RELN variants in TBS-C buffer for one hour at room temperature. For detection, we used goat anti-mouse RELN primary antibody (LS-C793521-100, LS-Bio, 1:2,000, 100 μL/well) as primary antibody for one h at R.T. and (1:10,000; 100 μL/well, donkey anti-goat IgG H&L, HRP, ab6885, Abcam) as secondary antibody for 30 min. at R.T. Between each of the previous steps, plates were washed four times with TBS-C buffer (200 μL/well). Plates were washed three times prior to initiating the colorimetric reaction (DY008, R&D Systems). Stop solution (50 μL/well, DY008, R&D Systems) was added upon five min. incubation and the absorbance of the samples was measured at 450 nm using the Synergy 2 microplate reader (BioTek Instruments). Processing and analysis of the data was done using Gen5 1.11 software and GraphPad Prism, respectively.

## RKQNYMMNFSRQHGLRRFYNRRRRSLRRYP [CTR-RELN H3447R]
[1]; SPR kinetic constants
  heparin affinity/interaction relative to WT, in words: about twice
[1]; SPR, kinetic data, vs RELN WT peptide
  interaction/affinity with heparin relative to WT: ~2 fold
NRP1
  affinity for NRP1 relative to WT: 10 fold
VLDLr
  binding to VLDLr: unable to bind directly
